Read-outs that look alike come from different tables or passages of the source.
System: MRC-5 human embryonal lung fibroblast cell line
Test: MTT antiproliferative assay, MRC-5
Format: cell-based
Conditions: 100–0.19 μM, non-tumoral cells; for IC50: read-out: IC50 (µM) ± SD MRC-5
Procedure: Breast cancer cell line MCF-7 (ATCC® HTB-22) and the drug-resistant subline of the human breast cancer MCF-7 (ECACC 86012803; KCR) were purchased from LGC Promochem (Teddington, UK). Both cell lines were cultured in Eagle’s Minimal Essential Medium (EMEM, containing 4.5 g/L glucose) supplemented with a non-essential amino acid mixture, a selection of vitamins, and 10% heat-inactivated fetal bovine serum. In every third passage, 0.56 µg/mL doxorubicin was added to the medium, in order to maintain the ABCB1 (P-glycoprotein) expression in KCR cells. A2780 human ovarian cancer cell line (ECACC, European Collection of Authentical Cell Culture, Sigma Cat.no. 93112519) was purchased from Merck KGaA (Darmstadt, Germany). […] The human ovarian cancer cell lines were cultured in RPMI 1640 medium supplemented with 10% heat-inactivated fetal bovine serum. […] HeLa (ATCC® CCL-2™) human cervix carcinoma cell line was purchased from LGC Promochem (Teddington, UK). The cells were cultured in Eagle’s Minimal Essential Medium (EMEM, containing 4.5 g/L glucose) supplemented with a non-essential amino acid mixture, a selection of vitamins, and 10% heat-inactivated fetal bovine serum. MRC-5 human embryonal lung fibroblast cell line (ATCC® CCL-171) was purchased from LGC Promochem, Teddington, UK. The cell line was cultured in Eagle’s Minimal Essential Medium (EMEM, containing 4.5 g/L glucose) supplemented with a non-essential amino acid mixture, a selection of vitamins, and 10% heat-inactivated fetal bovine serum. HTB-26 breast adenocarcinoma cell line was purchased from LGC Promochem, Teddington, UK. The cell line was cultured in RPMI 1640 medium supplemented with 10% heat-inactivated fetal bovine serum. T-47D (ATCC® HTB-133™) ductal carcinoma cell line was purchased from LGC Promochem, Teddington, UK. The cells were cultured in RPMI 1640 medium supplemented with 10% heat-inactivated fetal bovine serum, 2 mM L-glutamine, 1 mM Na-pyruvate, and 100 mM Hepes. All of the cells were incubated at 37 °C, in a 5% CO2 and 95% air atmosphere.
The antiproliferative effect of the compounds was determined on human breast (MCF-7, KCR, T47D, and HTB-26), cervical (HeLa), and ovarian (A2780 and A2780cis) cancer cells, and on MRC-5 (human embryonic lung fibroblast) cell lines. The adherent cells were cultured in 96-well flat-bottomed microtiter plates, using EMEM supplemented with 10% heat-inactivated fetal bovine serum or RPMI 1640 supplemented with 10% heat-inactivated fetal bovine serum, respectively. The density of the cells was adjusted to 6 × 10^3 cells in 100 μL per well, the cells were seeded for 24 h at 37 °C, with 5% CO2, and then the medium was removed from the plates, and fresh medium (100 μL per well) was added to the cells. The effects of increasing concentrations of compounds on cell proliferation were tested in 96-well flat-bottomed microtiter plates. The compounds were diluted in the appropriate medium; the dilutions of compounds were performed in separate plates and then added to the cells. The starting concentration of the compounds was 100 μM, and two-fold serial dilution was performed (concentration range: 100–0.19 μM). The culture plates were incubated at 37 °C for 72 h; at the end of the incubation period, 20 μL of MTT (thiazolyl blue tetrazolium bromide, Sigma) solution (from a stock solution of 5 mg/mL) was added to each well. After incubation at 37 °C for 4 h, 100 μL of sodium dodecyl sulfate (SDS) (Sigma) solution (10% in 0.01 M HCI) was added to each well, and the plates were further incubated, at 37 °C, overnight. Cell growth was determined by measuring the optical density (OD) at 540/630 nm, with a Multiscan EX ELISA reader (Thermo Labsystems, Cheshire, WA, USA). Mean IC50 values were obtained by best-fitting the dose-dependent inhibition curves in GraphPadPrism5 program (GraphPad Software version 5.00 for Windows, San Diego, CA, USA) from four parallel experiments for each cell line.

SMILES | IC50 (Homo sapiens, MRC5, 72 h) [µM] | IC50 (72 h) [µM] | IC50 (µM) ± SD MRC-5 (72 h)
C=CC1=CC(=O)C=C2CCC3=C(C=CC(=O)C3(C)OC)C12OC (centres unmarked) [Compound 3] | 12.2 ± 0.2 |  | 
C=Cc1c(C)c(O)cc2c1-c1ccc(O)c(C)c1CC2 [juncusol] | 40.9 ± 2 |  | 
C=Cc1cc(O)cc2c1-c1ccc(O)c(C)c1CC2 [effusol] | 60.1 ± 5.1 |  | 
C=CC1=CC(=O)C=C2CCC3=C(C=CC(=O)C3(C)OCC)C12OCC (centres unmarked) [Compound 4b] |  | 23.4 ± 1.3 | 
C=CC1=C(C)C(=O)C=C2CCC3=C(C=CC(=O)C3(C)OC)C21OC (centres unmarked) [Compound 1b] | > 100 |  | did not show an antiproliferative effect
C=CC1=C(C)C(=O)C=C2CCC3=C(C=CC(=O)C3(C)OCC)C21OCC (centres unmarked) [Compound 2a] | > 100 |  | did not show an antiproliferative effect
C=CC1=C(C)C(=O)C=C2CCC3=C(C=CC(=O)C3(C)OCC)C21OCC (centres unmarked) [Compound 2b] |  | 57.7 ± 0.3 | 
N.N.[Cl][Pt][Cl] [Cisplatin, cisplatin, reference compound] |  | 0.6 | 
C=CC1=CC(=O)C=C2CCC3=C(C=CC(=O)C3(C)OCC)C12OCC (centres unmarked) [Compound 4a] | 14.3 ± 0.5 |  | 

From article PMC7765930, “Antiproliferative Phenanthrenes from Juncus tenuis: Isolation and Diversity-Oriented Semisynthetic Modification” (Molecules, 2020)
